Measurements taken from paper PMC10777911, “A Potent PDK4 Inhibitor for Treatment of Heart Failure with Reduced Ejection Fraction” (Cells, 2023).
Converted amounts (≈) assume the structure as drawn.

Assays:
[1] = molecular target: T1, Full-length human PDK4 (GST-fusion) (Homo sapiens, UniProt Q16654); experiment: Off-chip mobility shift assay (MSA) for PDK4 inhibition; format: biochemical; details: at 10 µg/mL of each inhibitor; for inhibition at 10 µg/mL: read-out: PDK4 Inhibitory Activity (%)
T1 construct: GST (Glutathione S-transferase) (N); made in house; host or cells: E. coli
T1 sequence (Q16654 whole entry, the tested form may be a part): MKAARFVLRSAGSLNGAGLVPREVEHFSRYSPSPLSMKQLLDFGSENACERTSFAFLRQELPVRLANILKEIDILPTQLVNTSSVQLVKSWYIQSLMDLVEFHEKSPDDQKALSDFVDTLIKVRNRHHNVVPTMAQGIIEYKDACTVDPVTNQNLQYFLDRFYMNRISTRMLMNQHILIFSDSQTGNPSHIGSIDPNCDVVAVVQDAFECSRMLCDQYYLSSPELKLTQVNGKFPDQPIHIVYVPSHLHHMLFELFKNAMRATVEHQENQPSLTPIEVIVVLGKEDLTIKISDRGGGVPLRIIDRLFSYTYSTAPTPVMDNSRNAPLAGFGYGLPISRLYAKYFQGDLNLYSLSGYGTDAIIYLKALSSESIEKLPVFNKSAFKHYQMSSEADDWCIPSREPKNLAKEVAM
Description: Full-length human PDK4 [amino acids 1-411 of accession number NP_002603.1] was expressed as an N-terminal Glutathione S-transferase (GST)-fusion protein (73 kDa) using an E. coli expression system. GST-PDK4 was purified using glutathione affinity chromatography.
Derivatives were dissolved in dimethyl sulfoxide (DMSO) and further diluted in DMSO to prepare a solution with a 100-fold higher concentration than the test sample solution. This solution was further diluted 25-fold in assay buffer (20 mM 4-(2-hydroxyethyl)-1-piperazineethanesulfonic acid (HEPES), 0.01% Triton X-100, 2 mM dithiothreitol (DTT), pH 7.5) to make a test sample solution. The positive control substance solution was prepared the same way.
(1) 5µL of test sample solution, 5 µL of substrate/ATP/metal solution in assay buffer (20 mM HEPES, 0.01% Triton X-100, 2 mM DTT, pH 7.5), and 10 µL of kinase solution in assay buffer prepared in assay buffer were mixed in the wells of a 384-well polypropylene plate and allowed to react for 5 h at room temperature. (2) The reaction was stopped by adding 70 µL of Termination Buffer (QuickScout Screening Assist MSA; Carna Biosciences). (3) Substrate peptides and phosphorylated peptides in the reaction solution were separated and quantified using the LabChip system (Perkin Elmer, Shelton, CT, USA). (4) The product ratio (P/(P+S)) was calculated from the substrate peptide peak height (S) and the phosphorylated peptide peak height (P) of the kinase reaction.
The average signal in control wells containing all reaction components was considered to be 0% inhibition. The average signal in background wells (without enzyme) was considered as 100% inhibition, and the % inhibition was calculated from the average signal in each test sample well.

human fibroblast cells = experiment: Cytotoxicity assay against human fibroblast cells (growth inhibition); format: cell-based; details: human fibroblasts, read-out: Toxicity (IC50), half-maximal inhibitory concentration to inhibit fibroblast growth
Description: Wild-type fibroblasts obtained from a volunteer expressing [F352F + V368V] (FV–FV alleles), purchased from RIKEN Cell Bank (Tsukuba, Japan), were used, and the cytotoxicity assay was carried out as described in the previous paper.
(§1) With five synthesized Vitamin K3 derivatives, their in vitro PDK4 inhibitory activity and cytotoxicity were evaluated. In vitro activities were tested using fluorescently labeled PDH by measuring phosphorylated and unphosphorylated PDH of the derivatives using a CCD camera. For cytotoxicity, IC50 values were calculated by adding the derivatives to the human fibroblast culture medium and monitoring growth inhibition. Then, we evaluated the efficacy of novel PDK4 inhibitor candidates in the treatment of heart failure. The transverse aorta of wild-type mice was constricted to induce a pressure overload in the left ventricle, and the ejection fraction (EF) was postoperatively measured at 4 weeks. Subsequently, 2.8 mg/kg of each derivative was intraperitoneally administered to mice once daily for 1 week to evaluate improvement in EF values.

[2] = tested on: TAC mice (heart failure with reduced EF); experiment: Transverse aortic constriction (TAC) heart failure model, echocardiography; format: in vivo, mouse (C57BL/6J); details: 2.8 mg/kg i.p. once daily for 1 week, compared to DCA
Description: C57BL/6J mice were purchased from Japan SLC, Inc. (Hamamatsu, Japan) and Takasugi Experimental Animals Supply Co., Ltd. (Kasukabe, Japan), and were kept under a 12 h light–dark schedule. All animal handling procedures in this study complied with the Jichi Medical University Guide for Laboratory Animals and the ARRIVE guidelines. The Institutional Animal Care and Concern Committee at Jichi Medical University approved all experimental protocols. This study used 8-week-old male mice.
Mice were intubated prior to surgery and were maintained under assisted ventilation on a heating pad throughout the procedure. Under a microscope, a midline incision was made on the skin from the neckline to the mid-chest level. A partial thoracotomy was made through the second rib, and the sternum was retracted to aid visualization of the aorta. After periaortic tissue was removed, a 27-G blunt needle was placed in parallel along the transverse aorta, and the suture was tied over the needle between the innominate artery and the left common carotid. Then, the rib cage was closed, followed by closure of the skin. […] Mice were kept in a heating unit until they recovered completely from anesthesia.
At weeks 0, 4, and 5 after TAC induction, mice were anesthetized with 1.5% isoflurane and secured on an animal handling and physiological monitoring system in the supine position. Images were captured with a 30 MHz probe attached to a Vevo 2100 (VisualSonics, Toronto, ON, Canada). Heart rate was maintained at 400 to 500 bpm, and the temperature of the system was kept at 37 °C while echocardiographic images were captured. The ejection fraction was calculated using the Vevo2100 system based on the Teichholz method.
Four weeks after the TAC surgery, mice with an EF less than 55 were subjected to injection. Then, 2.8 mg/kg of compound 8 or DCA in 5% DMSO in saline or 5% DMSO in saline was injected peritoneally every day for 7 days.
as §1

PDK4 = tested on: PDK4; set-up: method as in PMID 24865588; details: previous study; read-out: IC50 of PDK4 inhibition; cited from earlier work

Row | SMILES | inhibition at 10 µg/mL [1] [%] | IC50 (human fibroblast cells) [µg/mL] | Change in EF (EF5/EF4) after a week of daily injection [2] | IC50 (PDK4) [µM] | melting point [°C] | PDK4 Inhibitory Activity (%) [1] [%]
1 | COC(=O)c1ccc2c(c1)C(=O)C(C)=CC2=O [Compound 5] | 34.6 | 8 (≈ 34.7 µM) | improve | – | – | –
2 | COC(=O)c1ccc2c(c1)C(=O)C=C(C)C2=O [Compound 11] | 65.4 | 7 (≈ 30.4 µM) | improve | – | – | –
3 | O=C(O)C(Cl)Cl [DCA, dichloroacetic acid] | – | – | – | 57.8 | – | –
4 | CC1=CC(=O)c2cc(C(=O)N[C@@H](CO)C(=O)O)ccc2C1=O [Compound 13b] | 63.2 | > 99 | improve | – | 166.6 to 166.8 | –
5 | CC1=CC(=O)c2cc(C(=O)NCC(=O)O)ccc2C1=O [Compound 13a] | 66.8 | > 110 | improve | – | 163 to 163.2 | –
6 | CC1=CC(=O)c2ccccc2C1=O [Vitamin K3, reference compound] | 66 | 18 (≈ 105 µM) | – | – | – | 65.9
